Experimental data published in PubChem BioAssay (NCI).
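Grown in 96-well plates, cells were treated for 48 hours with each compound at five concentrations. Insufficient inhibition: endpoint recorded as highest concentration tested. Definition used: TGI = concentration required for complete inhibition of growth.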

Columns and labels:
Test in all cases: growth of human tumour cells (NCI), 48 h
786-0 renal = tested on: 786-0 renal
A498 renal = tested on: A498 renal
A549 NSCLC = tested on: A549 NSCLC
ACHN renal = tested on: ACHN renal
BT-549 breast = tested on: BT-549 breast
CAKI-1 renal = tested on: CAKI-1 renal
CCRF-CEM leukemia = tested on: CCRF-CEM leukemia
COLO 205 colon = tested on: COLO 205 colon
EKVX NSCLC = tested on: EKVX NSCLC
HCC-2998 colon = tested on: HCC-2998 colon
HCT-116 colon = tested on: HCT-116 colon
HCT-15 colon = tested on: HCT-15 colon
HOP-62 NSCLC = tested on: HOP-62 NSCLC
HOP-92 NSCLC = tested on: HOP-92 NSCLC
HS 578T breast = tested on: HS 578T breast
HT29 colon = tested on: HT29 colon
IGROV1 ovarian = tested on: IGROV1 ovarian
K-562 leukemia = tested on: K-562 leukemia
KM12 colon = tested on: KM12 colon
LOX IMVI melanoma = tested on: LOX IMVI melanoma
M14 melanoma = tested on: M14 melanoma
MALME-3M melanoma = tested on: MALME-3M melanoma
MCF7 breast = tested on: MCF7 breast
MDA-MB-231 breast = tested on: MDA-MB-231 breast
MDA-MB-435 = tested on: MDA-MB-435
MDA-N = tested on: MDA-N
MOLT-4 leukemia = tested on: MOLT-4 leukemia
NCI-H226 lung = tested on: NCI-H226 lung
NCI-H23 lung = tested on: NCI-H23 lung
NCI-H460 lung = tested on: NCI-H460 lung
NCI-H522 lung = tested on: NCI-H522 lung
NCI/ADR-RES ovarian = tested on: NCI/ADR-RES ovarian
OVCAR-3 ovarian = tested on: OVCAR-3 ovarian
OVCAR-4 ovarian = tested on: OVCAR-4 ovarian
OVCAR-5 ovarian = tested on: OVCAR-5 ovarian
OVCAR-8 ovarian = tested on: OVCAR-8 ovarian
PC-3 prostate = tested on: PC-3 prostate
RPMI-8226 leukemia = tested on: RPMI-8226 leukemia
RXF 393 renal = tested on: RXF 393 renal
SF-268 CNS = tested on: SF-268 CNS
SF-295 CNS = tested on: SF-295 CNS
SF-539 CNS = tested on: SF-539 CNS
SK-MEL-2 melanoma = tested on: SK-MEL-2 melanoma
SK-MEL-5 melanoma = tested on: SK-MEL-5 melanoma
SK-OV-3 ovarian = tested on: SK-OV-3 ovarian
SN12C renal = tested on: SN12C renal
SNB-19 CNS = tested on: SNB-19 CNS
SNB-75 CNS = tested on: SNB-75 CNS
SR leukemia = tested on: SR leukemia
SW-620 colon = tested on: SW-620 colon
T-47D breast = tested on: T-47D breast
TK-10 renal = tested on: TK-10 renal
U251 CNS = tested on: U251 CNS
UACC-257 melanoma = tested on: UACC-257 melanoma
UACC-62 melanoma = tested on: UACC-62 melanoma
UO-31 renal = tested on: UO-31 renal
DU-145 prostate = tested on: DU-145 prostate
SK-MEL-28 melanoma = tested on: SK-MEL-28 melanoma

Cn1c(=O)c2c(-c3ccccc3)onc2n(C)c1=O
TGI (786-0 renal): 86.5 µM | TGI (A498 renal): > 100 µM | TGI (A549 NSCLC): > 100 µM | TGI (ACHN renal): > 100 µM | TGI (BT-549 breast): 45.2 µM | TGI (CAKI-1 renal): > 100 µM | TGI (CCRF-CEM leukemia): 77.9 µM | TGI (COLO 205 colon): > 100 µM | TGI (EKVX NSCLC): > 100 µM | TGI (HCC-2998 colon): 90.2 µM | TGI (HCT-116 colon): > 100 µM | TGI (HCT-15 colon): > 100 µM | TGI (HOP-62 NSCLC): > 100 µM | TGI (HOP-92 NSCLC): > 100 µM | TGI (HS 578T breast): 75.6 µM | TGI (HT29 colon): > 100 µM | TGI (IGROV1 ovarian): 55.3 µM | TGI (K-562 leukemia): > 100 µM | TGI (KM12 colon): > 100 µM | TGI (LOX IMVI melanoma): 70.1 µM | TGI (M14 melanoma): > 100 µM | TGI (MALME-3M melanoma): > 100 µM | TGI (MCF7 breast): > 100 µM | TGI (MDA-MB-231 breast): > 100 µM | TGI (MDA-MB-435): > 100 µM | TGI (MDA-N): > 100 µM | TGI (MOLT-4 leukemia): 81.5 µM | TGI (NCI-H226 lung): > 100 µM | TGI (NCI-H23 lung): 41.6 µM | TGI (NCI-H460 lung): > 100 µM | TGI (NCI-H522 lung): > 100 µM | TGI (NCI/ADR-RES ovarian): > 100 µM | TGI (OVCAR-3 ovarian): 53.1 µM | TGI (OVCAR-4 ovarian): > 100 µM | TGI (OVCAR-5 ovarian): > 100 µM | TGI (OVCAR-8 ovarian): > 100 µM | TGI (PC-3 prostate): > 100 µM | TGI (RPMI-8226 leukemia): 57.6 µM | TGI (RXF 393 renal): > 100 µM | TGI (SF-268 CNS): > 100 µM | TGI (SF-295 CNS): > 100 µM | TGI (SF-539 CNS): > 100 µM | TGI (SK-MEL-2 melanoma): 81.8 µM | TGI (SK-MEL-5 melanoma): > 100 µM | TGI (SK-OV-3 ovarian): > 100 µM | TGI (SN12C renal): > 100 µM | TGI (SNB-19 CNS): > 100 µM | TGI (SNB-75 CNS): > 100 µM | TGI (SR leukemia): 75.2 µM | TGI (SW-620 colon): > 100 µM | TGI (T-47D breast): > 100 µM | TGI (TK-10 renal): 42.9 µM | TGI (U251 CNS): > 100 µM | TGI (UACC-257 melanoma): > 100 µM | TGI (UACC-62 melanoma): > 100 µM | TGI (UO-31 renal): > 100 µM

S=c1nc[nH]c2c1ncn2Cc1ccco1
TGI (786-0 renal): > 100 µM | TGI (A498 renal): > 100 µM | TGI (A549 NSCLC): > 100 µM | TGI (ACHN renal): > 100 µM | TGI (BT-549 breast): > 100 µM | TGI (CAKI-1 renal): > 100 µM | TGI (COLO 205 colon): > 100 µM | TGI (DU-145 prostate): > 100 µM | TGI (EKVX NSCLC): > 100 µM | TGI (HCC-2998 colon): > 100 µM | TGI (HCT-116 colon): > 100 µM | TGI (HCT-15 colon): > 100 µM | TGI (HOP-62 NSCLC): > 100 µM | TGI (HOP-92 NSCLC): > 100 µM | TGI (HS 578T breast): > 100 µM | TGI (HT29 colon): > 100 µM | TGI (IGROV1 ovarian): > 100 µM | TGI (K-562 leukemia): > 100 µM | TGI (KM12 colon): > 100 µM | TGI (LOX IMVI melanoma): > 100 µM | TGI (M14 melanoma): > 100 µM | TGI (MALME-3M melanoma): > 100 µM | TGI (MCF7 breast): > 100 µM | TGI (MDA-MB-231 breast): > 100 µM | TGI (MDA-MB-435): > 100 µM | TGI (MDA-N): > 100 µM | TGI (MOLT-4 leukemia): > 100 µM | TGI (NCI-H226 lung): > 100 µM | TGI (NCI-H23 lung): > 100 µM | TGI (NCI-H460 lung): > 100 µM | TGI (NCI-H522 lung): > 100 µM | TGI (NCI/ADR-RES ovarian): > 100 µM | TGI (OVCAR-3 ovarian): > 100 µM | TGI (OVCAR-4 ovarian): > 100 µM | TGI (OVCAR-5 ovarian): > 100 µM | TGI (OVCAR-8 ovarian): > 100 µM | TGI (PC-3 prostate): > 100 µM | TGI (RPMI-8226 leukemia): > 100 µM | TGI (RXF 393 renal): > 100 µM | TGI (SF-268 CNS): > 100 µM | TGI (SF-295 CNS): > 100 µM | TGI (SF-539 CNS): > 100 µM | TGI (SK-MEL-2 melanoma): > 100 µM | TGI (SK-MEL-28 melanoma): > 100 µM | TGI (SK-MEL-5 melanoma): > 100 µM | TGI (SK-OV-3 ovarian): > 100 µM | TGI (SN12C renal): > 100 µM | TGI (SNB-19 CNS): > 100 µM | TGI (SNB-75 CNS): > 100 µM | TGI (SR leukemia): > 100 µM | TGI (SW-620 colon): > 100 µM | TGI (T-47D breast): > 100 µM | TGI (TK-10 renal): > 100 µM | TGI (U251 CNS): > 100 µM | TGI (UACC-257 melanoma): > 100 µM | TGI (UACC-62 melanoma): > 100 µM | TGI (UO-31 renal): > 100 µM
